Where “and” joins values, the source holds several entries; their conditions need not be identical. Identical values can stand only once. Like-named read-outs stand apart in the source and are kept apart here.
Tests used:
[1] = Elution study on porcine coronary artery; details: for Percent of Drug Eluted Over Time: samples 1 and 2
Protocol: (§1) To examine the effects of certain formulations of the present invention on porcine coronary artery samples, the samples were each prepared as follows:
(§2) Elution Media Preparation: Normal saline was prepared by weighing 4.5 grams of sodium chloride into a 500 mL Pyrex® bottle. 495.5 grams HPLC water was added to the 500 ml bottle. The bottle was then capped and vigorously shaken. 25% ethanol/saline elution media was prepared by weighing 25.0 grams of ethanol (200 proof) into a 100 mL Pyrex® bottle. 75.0 grams of normal saline was added to the 100 ml bottle containing ethanol. The bottle was capped and vigorously shaken.
(§3) Elution Method: Porcine coronary arterial vessels were obtained and dissected from hearts obtained from the butcher shop. Coronary arteries were flash frozen with dry ice then stored at −80° C. When ready for testing, arteries were removed from the freezer and allowed to thaw at room temperature. Any fat and muscle tissue were carefully removed using scissors and tweezers. Vessels were rinsed several times with normal saline containing 0.05% sodium azide.
(§4) Vessels were then cut into 1 cm sections. 5 μL of formulation (approximately 125 μg of drug) was carefully added onto the outer part of the tissue using a 10 μL Hamilton® syringe. Ethanol was allowed to evaporate at room temperature for 15-20 minutes.
(§5) Tissue was then placed into a 7 mL glass vial. 2 mL elution media, previously warmed to 37° C., was added carefully to each vial using an Eppendorf® pipette. Each vial was capped and placed in a 37° C. incubator and gently shaken at 100 spm (strokes per minute).
(§6) At certain time points, elution media was removed and fresh 2 mL media (at 37° C.) was slowly added to the vial.
(§7) Drug formulations in ethanol were applied (approximately 125 μg) onto previously frozen “butcher shop” porcine coronary arterial vessel and allowed to dry after 15-20 minutes.

[2] = pig
Protocol: as §1, §2, §3, §4, §5, §6, §7

Percent of Drug Eluted Over Time ([1]; 0.5 hours, approx. 125 μg drug on 1 cm vessel section, 25% ethanol/saline, 37° C.) | Percent of Drug Eluted Over Time ([1]; 1 hour, approx. 125 μg drug on 1 cm vessel section, 25% ethanol/saline, 37° C.) | Percent of Drug Eluted Over Time ([1]; 2 hours, approx. 125 μg drug on 1 cm vessel section, 25% ethanol/saline, 37° C.) | Percent of Drug Eluted Over Time ([1]; 3 hours, approx. 125 μg drug on 1 cm vessel section, 25% ethanol/saline, 37° C.) | Percent of Drug Eluted Over Time ([1]; 23 hours, approx. 125 μg drug on 1 cm vessel section, 25% ethanol/saline, 37° C.) | Percent of Drug Eluted Over Time ([1]; Extract (after extraction, following 23 hours of elution)) | Time within which most of the drug eluted off the tissue [2] [h] | SMILES | Elution behavior from vessel tissue (in words) ([1]; porcine coronary arterial tissue, 25% ethanol/saline, 37° C.) | Elution behavior from vessel tissue (in words) [2]
77% and 71% | 86% and 76% | 87% and 79% | 88% and 80% | 89% and 80% | 89% and 81% | – | CO[C@H]1C[C@@H]2CC[C@@H](C)[C@@](O)(O2)C(=O)C(=O)N2CCCC[C@H]2C(=O)O[C@H]([C@H](C)C[C@@H]2CC[C@@H](OCCO)[C@H](OC)C2)CC(=O)[C@H](C)/C=C(\C)[C@@H](O)[C@@H](OC)C(=O)[C@H](C)C[C@H](C)/C=C/C=C/C=C/1C [Everolimus] | eluting significantly faster than CRC-023 | –
– | – | – | – | – | – | ≤ 2 | CO[C@H]1C[C@@H]2CC[C@@H](C)[C@@](O)(O2)C(=O)C(=O)N2CCCC[C@H]2C(=O)O[C@H]([C@H](C)C[C@@H]2CC[C@@H](O)[C@H](OC)C2)CC(=O)[C@H](C)/C=C(\C)[C@@H](O)[C@@H](OC)C(=O)[C@H](C)C[C@H](C)/C=C/C=C/C=C/1C [Sirolimus] | – | eluting significantly faster than CRC-023
